Legend:
MtlA = assay: Global proteome analysis of sublethally treated cells; type: cell-based, Staphylococcus aureus; settings: Mu50 cells, sublethal concentration allowing ca. 50% residual growth
Protocol: After in-solution digestion (ISD) peptides were desalted on home-made C18 StageTips (Rappsilber et al. [2007]). Briefly, the peptide solution was passed over the MeOH pre-conditioned and 0.5% formic acid (FA) equilibrated StageTip. Immobilised peptides were then washed twice with 0.5% (v/v) FA. Washed peptides were eluted from the StageTips with 80% (v/v) ACN and 0.5% (v/v) FA and dried using a vacuum concentrator (Eppendorf). Before LC-MS, peptide samples were resuspended in 10 μL 0.1% (v/v) FA.
LC-MS/MS experiments were performed on an Orbitrap Elite instrument (Michalski et al. [2012]) (Thermo) that was coupled to an EASY-nLC 1000 liquid chromatography (LC) system (Thermo). […] Product ion spectra were recorded in a data-dependent fashion in the ion trap (ITMS) in a variable scan range and at a rapid scan rate. […] Peptides were analysed using a repeating cycle consisting of a full precursor ion scan (1.0 × 10^6 ions or 50 ms) followed by 15 product ion scans (1.0 × 10^4 ions or 100 ms), where peptides are isolated based on their intensity in the full survey scan (threshold of 500 counts) for tandem mass spectrum (MS2) generation that permits peptide sequencing and identification. […]
RAW spectra were submitted to an Andromeda (Cox et al. [2011]) search in MaxQuant (version 1.5.3.30) using the default settings (Cox and Mann [2008]). Label-free quantification was activated (Cox et al. [2014]). […]

[1] = tested on: MRSA vector control strain harbouring empty plasmid pLA03; assay: MIC in recombinant strain, empty vector control; type: cell-based; settings: Staphylococcus aureus
Protocol: To corroborate the role as potential determinants of resistance, mtlA and tetR were overexpressed under control of an anhydrotetracycline (Atc)-inducible promoter, and the effect on sensitivity toward 3-bromo-PP was analysed (Fig. 4e). […] However, induction of mtlA or tetR expression in the presence of Atc strongly rendered the cells more susceptible to 3-bromo-PP resulting in MICs of 0.019 μM for mtlA and 0.078 μM for tetR overexpression, respectively. This translates into a […] and 8-fold increased sensitivity during mtlA or tetR overexpression, respectively, compared with the empty vector control (Fig. 4e).

`Oc1c(Br)cc(Br)c(Br)c1Oc1ccc(Br)cc1Br` [3-bromo-PP, 3,4,6-tribromo-2-(2′,4′-dibromophenoxy)phenol] was tested, and the “downregulation of MtlA protein” value (MtlA) was “approx. 2.5 fold” and the MIC [1] was ~0.625 µM.
